A melting point compilation (Tetko et al.; mined from patent text by program, amines drawn as free bases though some values may be those of a salt)

| SMILES | melting point [°C] |
| --- | --- |
| Cc1ccc(/C=C/c2ccc3nc(C(=O)N[C@@H](Cc4ccc(OCc5ccccc5)cc4)C(=O)O)cn3c2)cc1 | 266 to 267 |
| O=C(O)Cc1ccc(CNC(=O)C2Cc3ccccc3N2S(=O)(=O)c2ccc(-c3cccc(C(F)(F)F)c3)cc2)cc1 (configuration not stated) | 90 |
| Cc1cc([C@H]2[C@H](C(=O)Nc3ccc(F)c(F)c3)C2(C)C)ccc1S(N)(=O)=O (relative stereo) | 195 to 198 |
| CCOC(=O)c1nn(-c2ccc(Cl)cc2Cl)c(-c2ccc(Br)cc2)c1CBr | 116 |
| CC(=O)NCCOc1ccc(N)cc1O | 134 |
| CC(C)n1nc(-c2c(NC(=N)N)nc(N)nc2-c2ccccc2)ccc1=O | 272 to 274 |
| CNC(=O)N(O)Cc1cccc(Nc2ccccc2C(=O)OC)c1C | 173 to 175 |
| NCCc1c[nH]c2ccc(Cc3nnn(Cc4ccccc4)n3)cc12 | 181 to 183 |
| CCCn1c(C)c(C(C)=O)c(N)c1-c1ccccc1 | 113 to 115 |
| CCN1CC(=O)N(c2ccc3ccccc3c2)C1=S | 156 to 159 |
| Nc1cnc(Cl)c(Cl)c1 | 110 to 113 |
| Cc1ccc(S(=O)(=O)OCCC2(O)CCc3cc(F)ccc3C2C(C)C)cc1 (configuration not stated) | 65 to 67 |
| Cc1oc(-c2ccc(C(F)(F)F)cc2)nc1-c1cccc(-c2ccc(OC(Cc3ccccc3)C(=O)O)cc2)c1 (configuration not stated) | 148 to 149 |
| CCCCCCCCCCCCc1ccccc1C(CC(=O)O)SCCC(=O)O (configuration not stated) | 55 to 56 |
| CCn1c(CCO)nc(C(C)C)c1Sc1cc(Cl)cc(Cl)c1 | 80 to 81 |
| CCN(CC)C(=O)CCc1ccc(N)c([N+](=O)[O-])c1 | 98 to 99 |
| O=C1NC(=O)C2(CCOc3ccc(F)cc32)S1 (configuration not stated) | 147 to 149 |
| Cc1ccc(-c2c(N)ncnc2OCCOc2ncc(Br)cn2)cc1 | 178 to 180 |
| COc1ccc(OCCOCn2cnc3ncnc(N)c32)cc1 | 129 to 130 |
| Cn1cc(-c2cc(-c3ccc(N)nc3)ccn2)n(-c2ccc(C(C)(C)C#N)cc2)c1=O | 252 |
| NC(=O)c1cc(-c2ccncc2)sc1-c1ccncc1 | 240 to 242 |
| Cn1cc(-c2cccc(Cl)c2)c(=O)o1 | 131 |
| Cc1cccc(C(=O)NC(NC(=NC#N)Nc2cccnc2)C(C)(Cl)Cl)c1 (configuration not stated) | 171 to 172 |
| CC(C)C[C@H](NC(=O)OCc1ccccc1)C(=O)N[C@@H](Cc1ccccc1)C(=O)CSCCN(C)C | 67 to 69 |
| COC(=O)c1c(O)c(-c2cccc(C(F)(F)F)c2)nn1C | 101 to 103 |

| SMILES | melting point [°C] |
| --- | --- |
| CC[C@H](COC)n1cc(Br)nc(N2CCc3cc(OC)cc(Br)c32)c1=O | 122 to 123 |
| N#CCCNC(=O)c1cccc(-c2ccc3c(c2)N(c2cccc(Cl)c2Cl)CC3)c1 | 155 to 156 |
| CCCCNC(=O)N(N)CCCC | 34 to 36 |
| CCCCCCCCCC(=O)Nc1cc(N)cc(NC(=O)CCCCCCCCC)c1 | 152 to 154 |
| CC1(C)c2ccccc2N2Cc3cc(N=Nc4ccc([N+](=O)[O-])cc4)ccc3OC21c1ccccc1 (configuration not stated) | 200 |
| Cc1ccccc1Cc1nc2cc(Cl)c(S(N)(=O)=O)cc2[nH]1 | 226 to 230 |
| CN(CCCCOCC(=O)O)c1cnc(-c2ccc(F)cc2)c(-c2ccc(F)cc2)n1 | 116 to 118 |
| Cc1cc(S(=O)(=O)N2CCCCC2)c(O)c2c1CCC2=O | 188 to 189 |
| CCCCCCCCCc1cc(C(=O)O)n[nH]1 | 147 to 149 |
| CCOC(=O)c1c(C)cc2ncn(-c3ccccc3)c(=O)c2c1C | 102 to 103 |
| CCOC(=O)CCCN(C(=O)c1cccc(C(F)(F)F)c1)c1ccccc1-c1ccccc1 | 65 to 67 |
| COc1ccc(OC)c(S(=O)(=O)n2c(COC(C)C(=O)O)cc3cc(Cl)ccc32)c1 (configuration not stated) | 196 to 198 |
| CCOC(=O)C1(Oc2ccc(O)cc2)CCC1 | 118 to 120 |
| Cc1nc(NC(=O)c2ccccc2)sc1C(=O)NCc1ccc(F)cc1 | 206 to 208 |
| CCCC1=C(c2ccc(F)c(F)c2)C(=NO)CC1 | 136 to 137 |
| COc1cc(Cl)c2c(c1)C=C(C(=O)O)C(C(F)(F)F)O2 (configuration not stated) | 204 to 207 |
| Cc1nc(-n2cnn(CC3CC3)c2=O)sc1C(=O)NCc1cccnc1 | 116 to 117 |
| CCCCCCOc1ccc(C(=O)NCCC(C)(C)C)cn1 | 75 to 76.5 |
| COC(=O)c1ccc(-c2nc(-c3ccc(OC)cc3)co2)cc1 | 200 to 202 |
| CCCc1nc2c(N)nc(C)c(C)c2n1CCCCCS(=O)(=O)c1ccc(Cl)cc1 | 147 to 149 |
| O=C(O)c1ccc(C(=O)NOCCCc2ccccc2)cc1 | 171 to 173 |
| CCCCC(CC)COC(=O)c1cc(CN(CC(=O)O)CC(=O)O)c(O)c(CN(CC(=O)O)CC(=O)O)c1 (configuration not stated) | 133 to 141 |
| CCOc1nccc(CC(=O)O)c1NC(=O)OC(C)(C)C | 94 to 95.5 |
| FC(F)(F)c1cccnc1-n1c(/C=C/c2ccccc2)nc2ccccc21 | 156 to 157 |
| CC1Cc2cc(N)ccc2C1=O (configuration not stated) | 151 to 152 |

| SMILES | melting point [°C] |
| --- | --- |
| CC(C)(NC(N)=O)C(=O)NCCO[N+](=O)[O-] | 98 to 100 |
| O=C(N[C@H]1CC[C@H](CCN2CCN(c3nccc4c3OCC4)CC2)CC1)c1ccc(N2CCOCC2)nc1 | 231 |
| CC(F)(F)CC(Br)c1ccccc1S(N)(=O)=O (configuration not stated) | 104 to 105 |
| c1ccc2c(c1)OP(N(C1CCCCC1)C1CCCCC1)c1ccccc1-2 (configuration not stated) | 162 |
| CC(=O)OC1CSC(Oc2cccnc2-c2ccncc2)C(OC(C)=O)C1OC(C)=O (configuration not stated) | 161 |
| CC(=O)CC(=O)c1ccc(OCCCN2CCCCC2)cc1 | 43 to 45.5 |
| COc1cccc(Oc2ccc(C(=O)O)cc2C(=O)O)c1 | 232 to 234 |
| CC(C)n1cc(C(=O)Nc2nccs2)c2ccc(O)cc21 | 239 to 241 |
| CC(C)CC(CO)NC(=O)c1ccccc1SSc1ccccc1C(=O)NC(CO)CC(C)C (configuration not stated) | 195 to 196 |
| O=C(O)CC(=O)NCc1cc(Br)cc2[nH]c(=O)c(=O)[nH]c12 | > 300 |
| O=C(c1ccc([N+](=O)[O-])cc1)N1CCN(c2ccncc2)CC1 | 158 to 160 |
| CCOCCCOc1ccc(-c2ccc3c(c2)C=C(C(=O)OC)CCN3C(=O)OC(C)(C)C)cc1 | 125 to 128 |
| O=C1Nc2ccc(Br)cc2C12OCCCO2 | 166 to 168 |
| CCOC(=O)c1sc2c(c1OC(C)=O)CN(Cc1ccccc1Cl)CC2 | 110 |
| c1ccc(CN2CCCCC2)c(CN2CCCCC2)c1 | 86 to 88 |
| CCOC(=O)NN=Cc1cn(-c2ccccc2)nc1-c1ccc([N+](=O)[O-])o1 | 200 to 201 |
| CCOC(=O)c1sc(-c2ccccc2)nc1O | 114 to 116 |
| O=C1N(Cc2ncccc2C(F)(F)F)c2ccccc2C12COc1c2ccc2c1OCCO2 (configuration not stated) | 206 to 207 |
| NC(=O)c1[nH]c2ccccc2c1-c1ccc(NC(=O)Nc2cccc(C(F)(F)F)c2)cc1 | 156 to 158 |
| Cc1cccc(C)c1Sc1nc[nH]n1 | 126 to 127 |
| Cc1ccccc1-c1nc2n(c1-c1ccc(C3(NC(=O)OC(C)(C)C)CCC3)c(F)c1)-c1cccnc1Nc1ccccc1-2 | 138 to 140 |
| Cc1cncc(-c2cncc(OC3SCC(O)C(O)C3O)c2)c1 (configuration not stated) | 119 to 120 |
| CON=C(C)c1cccc(NC(=O)NCC(=O)N(C)c2ccc(Cl)c(COc3cccc4ccc(C)nc34)c2Cl)c1 | 218 to 224 |
| CNC(=O)N1CCC(Oc2ccc([N+](=O)[O-])cc2)(c2ccccc2)CC1 | 110 to 115 |
| O=c1c(CCc2ccncc2)cc2cccnc2n1-c1cccc([N+](=O)[O-])c1 | 213 to 214 |

| SMILES | melting point [°C] |
| --- | --- |
| Cc1nc(-c2cnn(-c3c(Cl)cc(C(F)(F)F)cc3Cl)n2)[nH]c1[N+](=O)[O-] | 231 to 232 |
| CNC1(CC2CCCCC2)C(=O)N(S(=O)(=O)c2ccc([N+](=O)[O-])cc2OC)c2ccc(Cl)cc21 (configuration not stated) | 207 |
| O=C(O)c1cncc(O)c1C(=O)c1cc(Cl)ccc1F | 262 to 264 |
| CCCCC(CC)NC1=NS(=O)(=O)c2sc(Cl)cc2N1 (configuration not stated) | 165 to 168 |
| CNC(=NCCSCc1ccc2nc[nH]c2c1)NC#N | 191 |
| CS(=O)(=O)Nc1ccc(C(=O)C2CCN(CCc3cnc4ccccc4n3)CC2)cc1 | 156 to 157 |
| O=C(O)C(Br)CCCCCc1ccc(Cl)cc1 (configuration not stated) | 77 to 79 |
| CCCCC(=N)Nc1ccccc1N1CCOCC1 | 135 to 136 |
| COC(=O)Cc1cc2c(cc1CC(=O)NCCc1ccc(OC)c(OC)c1)OCO2 | 122 to 125 |
| COc1ccc(COc2nc(Cl)c(C(C)C)c(OCc3ccc(OC)cc3)n2)cc1 | 69 to 70 |
| O=C(Nc1cccc(C(F)(F)F)c1)c1cccc2cc(Oc3cc(COCc4ccccc4)ncn3)ccc12 | 123 to 124 |
| COc1ccc(C(=O)c2ccc(OCc3nc(-c4ccccc4)oc3C)cc2)c(OC(F)(F)C(=O)O)c1 | 166 to 167 |
| CCOC(=O)C1=C(CO)NC=C(C(=O)OC)C1c1ccccc1Cl (configuration not stated) | 187 to 188 |
| Cc1nc(Nc2ccccc2)nc(C#N)c1C | 181 to 184 |
| COC(=O)CC(C#Cc1ccc(C(=O)O)cc1)c1ccc(OC)c(OC2CCCC2)c1 (racemic) | 109 to 110 |
| N#CN=c1[nH]c2c([N+](=O)[O-])c(Cl)c(Cl)cc2nc1Cl | 245 to 255 |
| CC(=NO)c1cccc(NC(=O)NC2N=C(c3ccccc3F)c3cccc(C)c3N(CC(=O)N3CC4CCC(CC4)C3)C2=O)c1 (configuration not stated) | 199 to 208 |
| CC(C)(C)OC(=O)NCC12CN(c3c(F)cc4c(=O)c(C(=O)O)cn(C5CC5)c4c3Cl)CC1CCO2 (configuration not stated) | 111 to 113 |
| COC(=O)c1cc(Br)cc([N+](=O)[O-])c1SCc1ccccc1 | 65 to 66 |
| COc1cc(C(=O)NS(=O)(=O)c2ccccc2C)ccc1Cc1cn(C)c2ccc(CC(C)NC(=O)N(C)C)cc12 (configuration not stated) | 125 to 135 |
| O=P(CCc1ccccc1)(OCc1ccccc1)OCc1ccccc1 | 48 to 49 |
| CCOC(=O)c1cc2c3n(ccc-2n1)CC(C(OCC)OCC)=N3 | 242 to 244 |
